Like-named read-outs stand apart in the source and are kept apart here.
Experiments:
[1] = test system: mice; parameters: method as in PMID 12657261; conditions: formalin test in mice, subcutaneous injection, cited from earlier work
[2] = biological target: κ-opioid receptor; parameters: method as in PMID 16321540; conditions: guinea pig brain homogenate; read-out: IC50 ± SEM, opioid receptor, [3H]U-69593 (κ); cited from earlier work
[3] = biological target: δ-opioid receptor; conditions: cited from earlier work; for Ki: versus [3H]DT, read-out: Receptor binding affinity, Ki ± S.E., δ
[4] = biological target: μ-opioid receptor; conditions: cited from earlier work; for Ki: versus [3H]DAMGO, read-out: Receptor binding affinity, Ki ± S.E., μ
[5] = test system: δ-opioid receptor; assay: δ-opioid receptor binding, brain homogenate, versus [3H]DT; parameters: species or system rat; conditions: ratio of Ki values
Protocol: The receptor-binding affinities of synthetic analogs were determined using rat brain, as previously reported [45].

[6] = biological target: MVD (δ): mouse vas deferens, δ-receptors; conditions: cited from earlier work; for Ke of CTAP against the peptide, MVD: antagonist CTAP (μ); for Ke of CTAP against the peptide, MVD / Ke of N,N(Me)2Dmt-Tic-OH against the peptide, MVD: MVD assay; for Ke of N,N(Me)2Dmt-Tic-OH against the peptide, MVD: antagonist N,N(Me)2Dmt-Tic-OH (δ)
[7] = test system: GPI (μ): guinea pig ileum, predominantly μ-receptors; conditions: cited from earlier work
[8] = test system: MVD (δ): mouse vas deferens, δ-receptors; assay: isolated mouse vas deferens (MVD) assay; format: cell-based; conditions: Table 1; ratio of IC50 values
Protocol: (§1) The receptor-binding affinities of synthetic analogs were determined using rat brain, as previously reported. […] The GPI tissue contains predominantly μ-receptors, while MVD tissue contains δ-receptors. […] In contrast, 11 was devoid of activity in both assays, as expected from the binding data. […] This analog turned out to be a potent μ-antagonist and a weak δ-antagonist. […] The results of 13 are in line with observations that Dmt-D-Phe-NH2 and its C-terminally extended analog are μ-receptor antagonists.

[9] = test system: GPI (μ): guinea pig ileum, predominantly μ-receptors; assay: isolated guinea pig ileum (GPI) assay; format: cell-based; conditions: ratio of IC50 values
Protocol: as §1

[10] = test system: μ-opioid receptor; assay: μ-opioid receptor binding, brain homogenate, versus [3H]DAMGO; parameters: species or system rat; conditions: ratio of Ki values
Protocol: as §1
Two methyl groups on Dmp^4 may interfere with the receptor interaction due to a reduction in conformational flexibility and/or enhanced lipophilicity. To further examine the usefulness of Dmp-containing DYN peptides as κ-opioid receptor ligands, the in vitro bioactivity of DYN peptides was determined using the GPI assay (Table 5).

Q: What does the source list for `CN1CC[C@]23c4c5ccc(O)c4O[C@H]2[C@@H](O)C=C[C@H]3[C@H]1C5` [Morphine, reference compound]?
A: ED50, First phase ([1]; first phase): 3811 nmol/kg; ED50, Second phase ([1]; second phase): 7319 nmol/kg

Q: Which IC50 [2] does the source give for “Phe-Gly-Gly-Phe-Thr-Gly-Ala-Arg-Lys-Ser-Ala-Arg-Lys-Leu-Ala-Asn-Gln [NOC, reference compound]” here?
A: Its IC50 is 643 ± 218 nM.

Q: What about the IC50 ([3]; rat brain homogenate, read-out: IC50 ± SEM, opioid receptor, [3H]DT (δ)) of the same molecule?
A: The IC50 was > 10000 nM.

Q: What about the IC50 ([4]; rat brain homogenate, read-out: IC50 ± SEM, opioid receptor, [3H]DAMGO (μ)) of the same molecule?
A: Its IC50 is 1540 ± 601 nM.

Q: Which Ki ([3]; Table 1, rat brain) does the source give for “Tyr-D-Ala-Phe-Glu-Val-Val-Gly-NH2 [DT, reference compound]” here?
A: Its Ki is 0.0226 ± 0.0077 nM.

Q: And the Ki ([3]; Table 6)?
A: The Ki was 0.0226 ± 0.0077 nM.

Q: And the μ/δ ([5]; Table 1)?
A: The μ/δ was 13894.

Q: What about the Ki ([4]; Table 1, rat brain) of the same molecule?
A: The Ki was 314 ± 53 nM.

Q: And the Ki ([4]; Table 6)?
A: The Ki was 314 ± 53 nM.

Q: And the IC50 ([6]; Table 1)?
A: Its IC50 is 0.582 ± 0.029 nM.

Q: And the IC50 ([6]; Table 6)?
A: The IC50 was 0.582 ± 0.029 nM.

Q: And the “Ke of CTAP against the peptide, MVD” value [6]?
A: The value was >1000 nM.

Q: And the “Ke of N,N(Me)2Dmt-Tic-OH against the peptide, MVD” value [6]?
A: Its value is 0.64 nM.

Q: And the IC50 ([7]; Table 1)?
A: The IC50 was 5440 ± 812 nM.

Q: And the IC50 ([7]; Table 6)?
A: Its IC50 is 5440 ± 812 nM.

Q: What about the GPI/MVD [8] of the same molecule?
A: Its GPI/MVD is 9342.

Q: With “Tyr-D-Ala-Phe-Gly-Tyr-Pro-Ser-NH2 [DM, reference compound]” as the molecule, how does the MVD/GPI ([9]; Table 1) read?
A: Its MVD/GPI is 9.2.

Q: And the Ki ([3]; Table 1, rat brain)?
A: The Ki was 192 ± 51 nM.

Q: And the Ki ([4]; Table 1, rat brain)?
A: The Ki was 0.092 ± 0.024 nM.

Q: And the IC50 ([6]; Table 1)?
A: Its IC50 is 34.4 ± 4.8 nM.

Q: What about the δ/μ ([10]; Table 1) of the same molecule?
A: The δ/μ was 2087.

Q: What about the IC50 ([7]; Table 1) of the same molecule?
A: The IC50 was 3.74 ± 0.57 nM.

Q: Which IC50 ([6]; Table 1) does the source give for “Tyr-Gly-Gly-Phe-Leu [ENK, reference compound]” here?
A: The IC50 was 22.2 ± 4.3 nM.

Q: What about the IC50 ([6]; Table 6) of the same molecule?
A: Its IC50 is 22.2 ± 4.3 nM.

Q: What about the IC50 ([7]; Table 1) of the same molecule?
A: The IC50 was 103 ± 30 nM.

Q: And the IC50 ([7]; Table 6)?
A: The IC50 was 103 ± 30 nM.

Q: For [D-Dmp^1]EM2 [compound 39], which Ki ([3]; Table 6) is on record?
A: Its Ki is 9710 ± 3820 nM.

Q: What about the Ki ([4]; Table 6) of the same molecule?
A: The Ki was 40.4 ± 2.6 nM.

Q: And the IC50 ([6]; Table 6)?
A: The IC50 was 2330 ± 943 nM.

Q: And the δ/μ ([10]; Table 6)?
A: Its δ/μ is 241.

Q: And the IC50 ([7]; Table 6)?
A: The IC50 was 1390 ± 221 nM.

Q: With [D-Dmp^1]YRFB [compound 41] as the molecule, how does the MVD/GPI ([9]; Table 6) read?
A: The MVD/GPI was 4.6.

Q: And the Ki ([3]; Table 6)?
A: Its Ki is > 2820 nM.

Q: And the Ki ([4]; Table 6)?
A: The Ki was 7.62 ± 1.75 nM.

Q: What about the IC50 ([6]; Table 6) of the same molecule?
A: Its IC50 is 1470 ± 283 nM.

Q: And the δ/μ ([10]; Table 6)?
A: The δ/μ was >370.

Q: And the IC50 ([7]; Table 6)?
A: The IC50 was 320 ± 30 nM.

Q: Which MVD/GPI ([9]; Table 1) does the source give for [D-Dmp^3]DM [compound 19] here?
A: Its MVD/GPI is 8.1.

Q: What about the Ki ([3]; Table 1, rat brain) of the same molecule?
A: The Ki was 3300 ± 702 nM.

Q: And the Ki ([4]; Table 1, rat brain)?
A: Its Ki is 4.43 ± 1.85 nM.

Q: And the IC50 ([6]; Table 1)?
A: Its IC50 is 358 ± 45 nM.

Q: And the δ/μ ([10]; Table 1)?
A: Its δ/μ is 745.

Q: What about the IC50 ([7]; Table 1) of the same molecule?
A: The IC50 was 44.4 ± 6.1 nM.

Q: Which results are given for [D-Dmp^3]DT [compound 21]?
A: Ki ([3]; Table 1, rat brain): 111 ± 17 nM; μ/δ ([5]; Table 1): 18; Ki ([4]; Table 1, rat brain): 1960 ± 177 nM; IC50 ([6]; Table 1): 145 ± 15 nM; IC50 ([7]; Table 1): 8210 ± 872 nM; GPI/MVD [8]: 56

Q: Which MVD/GPI ([9]; Table 1) does the source give for [D-Dmp^3]EM2 [compound 15] here?
A: The MVD/GPI was 6.15.

Q: And the Ki ([3]; Table 1, rat brain)?
A: The Ki was 4170 ± 954 nM.

Q: And the Ki ([4]; Table 1, rat brain)?
A: Its Ki is 2.4 ± 0.56 nM.

Q: What about the IC50 ([6]; Table 1) of the same molecule?
A: The IC50 was 187 ± 30 nM.

Q: What about the δ/μ ([10]; Table 1) of the same molecule?
A: The δ/μ was 1737.

Q: What about the IC50 ([7]; Table 1) of the same molecule?
A: The IC50 was 30.4 ± 2.8 nM.

Q: Which MVD/GPI ([9]; Table 1) does the source give for [D-Dmp^3]YRFB [compound 23] here?
A: Its MVD/GPI is 15.4.

Q: And the Ki ([3]; Table 1, rat brain)?
A: Its Ki is > 2820 nM.

Q: And the Ki ([4]; Table 1, rat brain)?
A: The Ki was 0.0618 ± 0.0109 nM.

Q: What about the IC50 ([6]; Table 1) of the same molecule?
A: The IC50 was 305 ± 53 nM.

Q: What about the δ/μ ([10]; Table 1) of the same molecule?
A: Its δ/μ is >45679.

Q: And the IC50 ([7]; Table 1)?
A: The IC50 was 19.8 ± 1.9 nM.

Q: With [D-Dmp^4]EM2 [compound 17] as the molecule, how does the MVD/GPI ([9]; Table 1) read?
A: The MVD/GPI was 3.86.

Q: What about the Ki ([3]; Table 1, rat brain) of the same molecule?
A: The Ki was 1760 ± 834 nM.

Q: And the Ki ([4]; Table 1, rat brain)?
A: The Ki was 106 ± 20 nM.

Q: And the IC50 ([6]; Table 1)?
A: Its IC50 is 2270 ± 603 nM.

Q: What about the δ/μ ([10]; Table 1) of the same molecule?
A: The δ/μ was 17.

Q: And the IC50 ([7]; Table 1)?
A: Its IC50 is 587 ± 119 nM.

Q: Which results are given for [D-Dmp^4]ENK [compound 11]?
A: Ki ([3]; Table 1, rat brain): 8920 ± 4100 nM; μ/δ ([5]; Table 1): 0.28; Ki ([4]; Table 1, rat brain): 2500 ± 169 nM; IC50 ([6]; Table 1): > 10000 nM; IC50 ([7]; Table 1): > 10000 nM

Q: Which results are given for [D-Dmp^l]DT [compound 35]?
A: Ki ([3]; Table 6): 1390 ± 495 nM; Ki ([4]; Table 6): > 2180 nM; IC50 ([6]; Table 6): 662 ± 147 nM; IC50 ([7]; Table 6): > 10000 nM

Q: For [Dmp^1,3]YRFB [compound 25], which MVD/GPI ([9]; Table 6) is on record?
A: Its MVD/GPI is 18.2.

Q: And the Ki ([3]; Table 6)?
A: Its Ki is 1690 ± 458 nM.

Q: What about the Ki ([4]; Table 6) of the same molecule?
A: Its Ki is 0.0216 ± 0.0062 nM.

Q: What about the “Ke of CTAP against the peptide, MVD” value [6] of the same molecule?
A: Its value is 10.2 nM.

Q: What about the “Ke of N,N(Me)2Dmt-Tic-OH against the peptide, MVD” value [6] of the same molecule?
A: Its value is >1000 nM.

Q: What about the δ/μ ([10]; Table 6) of the same molecule?
A: Its δ/μ is 78148.

Q: What about the IC50 ([7]; Table 6) of the same molecule?
A: The IC50 was 2.76 ± 0.56 nM.

Q: What about the “Ke of CTAP against the peptide, GPI” value ([7]; antagonist CTAP (μ), GPI assay) of the same molecule?
A: Its value is 21.3 nM.

Q: With [Dmp^1]DT [compound 34] as the molecule, how does the Ki ([3]; Table 6) read?
A: Its Ki is 0.329 ± 0.077 nM.

Q: What about the μ/δ ([5]; Table 6) of the same molecule?
A: The μ/δ was 475.

Q: And the Ki ([4]; Table 6)?
A: The Ki was 156 ± 33 nM.

Q: What about the IC50 ([6]; Table 6) of the same molecule?
A: The IC50 was 0.272 ± 0.054 nM.

Q: What about the IC50 ([7]; Table 6) of the same molecule?
A: The IC50 was 4040 ± 1120 nM.

Q: Which results are given for [Dmp^1]EM2 [compound 38]?
A: MVD/GPI ([9]; Table 6): 8.61; Ki ([3]; Table 6): 6760 ± 590 nM; Ki ([4]; Table 6): 2.48 ± 1.46 nM; IC50 ([6]; Table 6): 661 ± 316 nM; δ/μ ([10]; Table 6): 2727; IC50 ([7]; Table 6): 76.9 ± 20.7 nM
